From US8871767B2, “2-arylimidazo[1,2-B]pyridazine, 2-phenylimidazo[1,2-A]pyridine, and 2-phenylimidazo[1,2-A]pyrazine derivatives” (Hengrui (USA) Ltd., priority 2010, dated 2014)

Each molecule was assayed on Hedgehog pathway activation on 10T1/2/Smo#3 cells (C3H10T1/2 cells transfected with human Smoothened receptor) (assay: Hedgehog pathway activation on 10T1/2/Smo#3 cells measured by ALP activity). Details: Mus musculus, C3H 10T1/2, 10T1/2/Smo#3 cells, measured by ALP activity; read-out: ALP (IC50, inhibition of Hedgehog pathway activation).
Format: cell-based
Method: Hedgehog conditioned media was obtained by transfecting 293H cells with the full length gene encoding human Sonic Hedgehog (hShh) inserted into the pCMV6 expression vector, which contains a neomycin selectable marker and expresses the protein of interest with a C-terminal FLAG affinity tag. After selection in G418 containing media, conditioned media from Hedgehog expressing clones were tested for the ability to activate the hedgehog-responsive GLi-luciferase reporter in the Shh Light II cell line obtained by license from John Hopkins University (Taipale J, et al. Effects of oncogenic mutations in Smoothened and Patched can be reversed by cyclopamine. Nature 406: 1005-1009, 2000).
C3H10T1/2 cells were transfected with a pCMV expression vector containing the full length gene sequence encoding the human Smoothened receptor. Pooled cells, designated 10T1/2/Smo#3, growing in G418 selection media responded to activation by 10-20% conditioned hShh media with an approximate 5-10 fold increase in alkaline phosphaste (ALP) activity over untransfected parent C3H10T1/2 cells as measured by the conversion of the free acid of 4-methylumbelliferyl phosphate to a fluorescent product.
A test compound library was screened against hShh and 500 nM SAG (a direct agonist of the Smoothened receptor) activated 10T1/2/Smo#3 cells and Shh Light II reporter cells for the ability to block Hedgehog pathway activation. Concurrently, cell viability was measured by utilizing Celltiter-Blue® (Promega, Madison Wis.) viability assay. Active compounds were defined as those that inhibited Hedgehog signaling by greater than 50% with no concurrent loss in cell viability.
Their inhibitory activity against Hedgehog pathway activation on 10T1/2/Smo#3 cells as measured by ALP activity and Shh Light II reporter cells as measured by luciferase activity is shown in Table 1 below. In Table 1, +++ stands for an IC50 value that is less than 0.3 μM, ++ between 0.3 and 3 μM, + between 3 and 30 μM.
Additional data for compounds of the invention is shown below in Table 2. Their inhibitory activities against Hedgehog pathway activation are shown as IC50 values in μM on 10T1/2/Smo#3 cells as measured by ALP activity, or on Shh Light II reporter cells as measured by luciferase activity (hShh activation).

Q: For `CC1CN(c2ccc3nc(-c4ccc(OC(F)(F)F)c(NC(=O)C(C)(C)C)c4)cn3n2)CC(C)O1` (stereo not drawn) [Example 266, N-(5-(6-(2,6-dimethylmorpholino)imidazo[1,2-b]pyridazin-2-yl)-2-(trifluoromethoxy)phenyl)pivalamide], which IC50 is on record?
A: 1530 nM

Q: For `CC(C)(C)C(=O)Nc1cc(-c2cn3nc(Cl)ccc3n2)ccc1OC(F)(F)F` [Example 245, N-(5-(6-chloroimidazo[1,2-b]pyridazin-2-yl)-2-(trifluoromethoxy)phenyl)pivalamide], which IC50 is on record?
A: 2970 nM

Q: With `CCOc1ccc2nc(-c3ccc(C4CC4)c(NC(=O)C(C)(C)C)c3)cn2n1` [Example 272, N-(2-cyclopropyl-5-(6-ethoxyimidazo[1,2-b]pyridazin-2-yl)phenyl)pivalamide] as the molecule, how does the IC50 read?
A: 1260 nM

Q: For `CC(C)(C)C(=O)Nc1cc(-c2cn3nc(N4CCC(O)CC4)ccc3n2)ccc1OC(F)(F)F` [Example 269, N-(5-(6-(4-hydroxypiperidin-1-yl)imidazo[1,2-b]pyridazin-2-yl)-2-(trifluoromethoxy)phenyl)pivalamide], which IC50 is on record?
A: 1010 nM

What follows are molecules tested on Hedgehog pathway activation (GLi-luciferase reporter) in Shh Light II reporter cells (assay: Hedgehog pathway activation on Shh Light II reporter cells measured by luciferase activity). Details: Mus musculus, Shh Light II, hShh activation, read-out: Shh (IC50, inhibition of Hedgehog pathway activation).
Format: cell-based
Procedure, shortened: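 Shh Light II reporter cells carrying a hedgehog-responsive GLi-luciferase reporter were stimulated either with 500 nM SAG, a direct Smoothened agonist, or with conditioned media containing human Sonic Hedgehog (hShh). Test compounds were evaluated for blocking this pathway activation, quantified by luciferase activity. Cell viability was monitored in parallel with the Celltiter-Blue® assay.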

Q: How did the IC50 turn out when `CC(C)(C)C(=O)Nc1cc(-c2cn3nc(NC4CCCCC4O)ccc3n2)ccc1C(F)(F)F` (stereo not drawn) [Example 333, N-(5-(6-(2-hydroxycyclohexylamino)imidazo[1,2-b]pyridazin-2-yl)-2-(trifluoromethyl)phenyl)pivalamide] was run?
A: 893 nM

Q: How did the IC50 turn out when `COC(=O)CCCCC(=O)Nc1cc(-c2cn3nc(-c4cccnc4C(F)(F)F)ccc3n2)ccc1C` [Example 421, methyl 6-(2-methyl-5-(6-(2-(trifluoromethyl)pyridin-3-yl)imidazo[1,2-b]pyridazin-2-yl)phenylamino)-6-oxohexanoate] was run?
A: 3310 nM

Q: With `CC(C)(C)C(=O)Nc1cc(-c2cn3nc(N4CCC(N)CC4)ccc3n2)ccc1C(F)(F)F` [Example 332, N-(5-(6-(4-aminopiperidin-1-yl)imidazo[1,2-b]pyridazin-2-yl)-2-(trifluoromethyl)phenyl)pivalamide] as the molecule, how does the IC50 read?
A: 698 nM

Q: With `CNC(=O)c1ccccc1-c1ccc2nc(-c3ccc(C)c(NC(=O)C(C)(C)C)c3)cn2n1` [Example 452, N-methyl-2-(2-(4-methyl-3-pivalamidophenyl)imidazo[1,2-b]pyridazin-6-yl)benzamide] as the molecule, how does the IC50 read?
A: 385 nM

Q: Which IC50 does the source give for `Cc1ccc(-c2cn3nc(-c4cccnc4C(F)(F)F)ccc3n2)cc1-c1nc(C(C)(C)C)cs1` [compound 520] here?
A: 492 nM

Q: Which IC50 does the source give for `CCOC(=O)CCCCCNC1CCN(c2ccc3nc(-c4ccc(C)c(NC(=O)C(C)(C)C)c4)cn3n2)C1` (stereo not drawn) [Example 414, ethyl 6-(1-(2-(4-methyl-3-pivalamidophenyl)imidazo[1,2-b]pyridazin-6-yl)pyrrolidin-3-ylamino)hexanoate] here?
A: 947 nM

Q: For `CC(C)(C)C(=O)Nc1cc(-c2cn3nc(NC4CCNCC4)ccc3n2)ccc1C(F)(F)F` [Example 330, N-(5-(6-(piperidin-4-ylamino)imidazo[1,2-b]pyridazin-2-yl)-2-(trifluoromethyl)phenyl)pivalamide], which IC50 is on record?
A: 676 nM

Q: For `Cc1ccc(-c2cn3nc(-c4cccnc4C#N)ccc3n2)cc1NC(=O)C(C)(C)C` [compound 581, N-(5-(6-(2-cyanopyridin-3-yl)imidazo[1,2-b]pyridazin-2-yl)-2-methylphenyl)pivalamide], which IC50 is on record?
A: 82 nM

Q: With `Cc1ccc(-c2cn3nc(-c4cccnc4C(F)(F)F)ccc3n2)cc1NS(=O)(=O)c1cccc(C=CC(=O)NO)c1` [compound 626, N-hydroxy-3-(3-(N-(2-methyl-5-(6-(2-(trifluoromethyl)pyridin-3-yl)imidazo[1,2-b]pyridazin-2-yl)phenyl)sulfamoyl)phenyl)acrylamide] as the molecule, how does the IC50 read?
A: 2910 nM

Q: How did the IC50 turn out when `CC(C)(C)C(=O)Nc1cc(-c2cn3nc(N4CCCC4CO)ccc3n2)ccc1C(F)(F)F` (stereo not drawn) [Example 348, N-(5-(6-(2-(hydroxymethyl)pyrrolidin-1-yl)imidazo[1,2-b]pyridazin-2-yl)-2-(trifluoromethyl)phenyl)pivalamide] was run?
A: 339 nM

Q: With `CCOC(=O)CCC(=O)Nc1cc(-c2cn3nc(-c4cccnc4C(F)(F)F)ccc3n2)ccc1C` [Example 436, ethyl 4-(2-methyl-5-(6-(2-(trifluoromethyl)pyridin-3-yl)imidazo[1,2-b]pyridazin-2-yl)phenylamino)-4-oxobutanoate] as the molecule, how does the IC50 read?
A: 975 nM

Q: How did the IC50 turn out when `CCOC(=O)COc1cc(-c2ccc3nc(-c4ccc(C)c(NC(=O)C(C)(C)C)c4)cn3n2)cc(C(F)(F)F)n1` [Example 475, ethyl 2-(4-(2-(4-methyl-3-pivalamidophenyl)imidazo[1,2-b]pyridazin-6-yl)-6-(trifluoromethyl)pyridin-2-yloxy)acetate] was run?
A: 2610 nM

Q: Which IC50 does the source give for `CCOC(=O)C=Cc1cccc(C(=O)Nc2cc(-c3cn4nc(C=CC(=O)OCC)ccc4n3)ccc2C)c1` [compound 610] here?
A: 465 nM

Q: With `Cc1ccc(-c2cn3nc(-c4cccc(O)c4C(F)(F)F)ccc3n2)cc1NC(=O)C(C)(C)C` [Example 398, N-(5-(6-(3-hydroxy-2-(trifluoromethyl)phenyl)imidazo[1,2-b]pyridazin-2-yl)-2-methylphenyl)pivalamide] as the molecule, how does the IC50 read?
A: 681 nM

Q: `CC(=O)Nc1ccc(-c2ccc3nc(-c4ccc(C)c(NC(=O)C(C)(C)C)c4)cn3n2)c(C)n1` [compound 504, N-(5-(6-(6-acetamido-2-methylpyridin-3-yl)imidazo[1,2-b]pyridazin-2-yl)-2-methylphenyl)pivalamide] was tested. Which IC50 did it give?
A: 360 nM

Q: `COC(=O)CCCCC(=O)Nc1ccc(-c2ccc3nc(-c4ccc(C)c(NC(=O)C(C)(C)C)c4)cn3n2)c(C(F)(F)F)c1` [compound 510] was tested. Which IC50 did it give?
A: 379 nM

Q: `Cc1nc(-c2ccc(-c3ccc4nc(-c5ccc(C)c(NC(=O)C(C)(C)C)c5)cn4n3)cc2)no1` [compound 549] was tested. Which IC50 did it give?
A: 204 nM

Q: How did the IC50 turn out when `Cc1ccc(-c2cn3nc(-c4cccc(CO)n4)ccc3n2)cc1NC(=O)C(C)(C)C` [Example 460, N-(5-(6-(6-(hydroxymethyl)pyridin-2-yl)imidazo[1,2-b]pyridazin-2-yl)-2-methylphenyl)pivalamide] was run?
A: 1120 nM

Q: `COc1ccc(F)c(-c2ccc3nc(-c4ccc(C(F)(F)F)c(NC(=O)C(C)(C)C)c4)cn3n2)c1` [Example 228, N-(5-(6-(2-fluoro-5-methoxyphenyl)imidazo[1,2-b]pyridazin-2-yl)-2-(trifluoromethyl)phenyl)pivalamide] was tested. Which IC50 did it give?
A: 325 nM

Q: How did the IC50 turn out when `Cc1ccc(-c2cn3nc(-c4cc(C(F)(F)F)ccn4)ccc3n2)cc1NC(=O)C(C)(C)C` [Example 456, N-(2-methyl-5-(6-(4-(trifluoromethyl)pyridin-2-yl)imidazo[1,2-b]pyridazin-2-yl)phenyl)pivalamide] was run?
A: 365 nM

Q: Which IC50 does the source give for `Cc1ccc(-c2cn3nc(-c4ccc(C(=O)NOC5CCCCO5)cc4)ccc3n2)cc1NC(=O)C(C)(C)C` (stereo not drawn) [compound 584] here?
A: 1900 nM

Q: With `Cc1ccc(-c2cn3nc(-c4cccc(C(=O)O)c4)ccc3n2)cc1NC(=O)C(C)(C)C` [compound 528] as the molecule, how does the IC50 read?
A: 5850 nM

Q: How did the IC50 turn out when `Cc1ccc(-c2cn3nc(-c4cccc(NC(=O)CCCCCCC(=O)NO)n4)ccc3n2)cc1NC(=O)C(C)(C)C` [compound 580, N1-hydroxy-N8-(6-(2-(4-methyl-3-pivalamidophenyl)imidazo[1,2-b]pyridazin-6-yl)pyridin-2-yl)octanediamide] was run?
A: 1320 nM

Q: Which IC50 does the source give for `Cc1ccc(-c2cn3nc(-c4cccnc4C(F)(F)F)ccc3n2)cc1-c1cccc(C(F)(F)F)n1` [Example 441, 2-(4-methyl-3-(6-(trifluoromethyl)pyridin-2-yl)phenyl)-6-(2-(trifluoromethyl)pyridin-3-yl)imidazo[1,2-b]pyridazine] here?
A: 2560 nM

Q: For `Cc1ccc(-c2cn3nc(-c4ccccc4O)ccc3n2)cc1NC(=O)C(C)(C)C` [Example 276, N-(5-(6-(2-hydroxyphenyl)imidazo[1,2-b]pyridazin-2-yl)-2-methylphenyl)pivalamide], which IC50 is on record?
A: 1960 nM

Q: How did the IC50 turn out when `Cc1ccc(-c2cn3nc(-c4ccc(C#N)cc4C)ccc3n2)cc1NC(=O)C(C)(C)C` [compound 574] was run?
A: 364 nM

Q: `CCOC(=O)CCCCCCNC1CCN(c2ccc3nc(-c4ccc(C)c(NC(=O)C(C)(C)C)c4)cn3n2)C1` (stereo not drawn) [Example 415, ethyl 7-(1-(2-(4-methyl-3-pivalamidophenyl)imidazo[1,2-b]pyridazin-6-yl)pyrrolidin-3-ylamino)heptanoate] was tested. Which IC50 did it give?
A: 1760 nM

Q: How did the IC50 turn out when `Cc1ccc(-c2cn3nc(-c4ccc(C(=O)O)cc4)ccc3n2)cc1NC(=O)C(C)(C)C` [compound 521] was run?
A: > 10000 nM

Q: How did the IC50 turn out when `Cc1ccc(-c2cn3nc(NCc4ccc(C(=O)NO)cc4)ccc3n2)cc1NC(=O)C(C)(C)C` [compound 604] was run?
A: 157 nM
